Experimental data from patent US9376466B2, “Peptide inhibitors of caspase 2 activation” (The Trustees of Columbia University in the city of New York, priority 2011, dated 2016).
“Also recorded” adds a separate entry of the source.

Columns and labels:
Assay type in all cases: cell-based, rat
[1] = tested on: primary hippocampal neurons; test: Cell survival assay, primary hippocampal neurons treated with Aβ1-42; conditions: AFDAFC-Pen1 final concentration 80 nM, survival quantified after 1 day, n=3, FIG. 7
Description: Peptide Preparation: AFDAFC (SEQ ID NO: 1) was synthesized by Multiple Peptide Systems (San Diego, Calif.). Lyophilized peptide was resuspended in sterile ddH2O and linked in equimolar amounts with Pen1 (Troy et al. Proc. Natl. Acad. Sci. U.S.A. 93: 5635-5640 (1996)) for a stock concentration of 80 μM. AFDAFC-Pen1 was used at a final concentration of 80 nM.
Embryonic day 18 rat fetuses were removed from CO2-sacrificed pregnant Sprague Dawley rats (Charles River). The hippocampus was dissected out from surrounding tissue and the meninges completely removed. Pooled tissue was mechanically dissociated in a serum-free defined medium. […]
Cell Survival Assay. Hippocampal or sympathetic neuron survival was scored as previously reported (Troy et al., J Neurosci. 17:1911-8, 1997). […] Intact nuclei were quantified using a hemacytometer. Triplicate wells were scored and values reported as mean±SEM. Significance was calculated by Student's t-test. For sympathethic neurons, each culture was scored as numbers of living, phase-bright neurons counted in the same field at various times. Three replicate cultures were assessed for each condition, and data are normalized to numbers of neurons present in each culture at the time of Aβ1-42 addition or NGF deprivation and reported as mean±SEM.

[2] = tested on: Caspase 2 bound to endogenous RAIDD; test: Caspase 2 and RAIDD co-immunoprecipitation in primary hippocampal neurons; conditions: primary hippocampal neurons treated with AFDAFC-Pen1 prior to Aβ1-42; Western blot; FIG. 13
Description: Caspase 2 and RAIDD Co-Immunoprecipitation (IP). Mouse IgG magnetized beads (Invitrogen) were pre-coated with a RAIDD antibody (anti-CRADD; Abnova) for 2 hrs at 4° C. on a rotator. 2 μg of antibody was used per 30 μl of beads. Primary rat hippocampal neurons were treated with Aβ1-42 (3 μM) for 1 or 2 hrs. Cell lysates were prepared using CHAPS lysis buffer. 70-120 μg of lysates were loaded onto anti-CRADD pre-coated beads and incubated overnight at 4° C. on a rotator. Following the overnight incubation, the captured proteins were boiled off the beads at 100° C. for 5 mins. The immunoprecipitated samples, along with inputs, were then subjected to Western blotting using affinity purified polyclonal anti-Caspase 2.

[3] = tested on: Bim; test: Western blot of Bim protein in hippocampal neuron cultures; conditions: primary hippocampal neurons treated with AFDAFC-Pen1 prior to Aβ1-42; FIG. 14
Description: Cell Culture of primary hippocampal neuron cultures. Neurons were cultured as previously described (Akpan et al., J Neurosci. 31:8894-904, 2011). Briefly, embryonic day 18 rat fetuses were removed from CO2-sacrificed pregnant Sprague Dawley rats (Charles River). The hippocampus was dissected from surrounding tissue and the meninges removed. Pooled hippocampi were mechanically dissociated in a serum-free defined medium. Medium consisted of a 1:1 mixture of Eagle's MEM and Ham's F12 (Invitrogen) supplemented with glucose (6 mg/ml), insulin (25 μg/ml), selenium (30 nM), progesterone (20 nM), transferrin (100 μg/ml), putrescine (60 μg/ml), penicillin (0.5 U/ml), and streptomycin (0.5 μg/ml). Dissociated cells were grown on poly-D-lysine coated plates or 8-well chamber slides. Neurons were cultured for 7 days prior to experimental treatments.
Western Blot. Hippocampal neurons or sympathetic neurons were lysed in CHAPS lysis buffer ([…], 50 mM HEPES, 0.1% CHAPS, protease inhibitor tablet, pH 7.4). Protein concentration was determined using BioRad protein assay reagent (Bio-Rad). Equal amounts of protein were loaded onto 10% or 12% polyacrylamide gels. […] Proteins were detected using either enhanced chemiluminescence (Thermo Scientific) or fluorescence using the Odyssey infrared imaging system (LI-COR Biosciences). The relative densities of immunopositive bands were analyzed using ImageJ.

## AFDAFC-Pen1: Caspase 2 activation inhibitory peptide AFDAFC (SEQ ID NO: 1) conjugated to cell-penetrating peptide Pen1 (RQIKIWFQNRRMKWKK)
[1]
  Aβ-mediated cell death (survival): abrogates Aβ-mediated cell death
[2]
  Aβ1-42-induced binding of Caspase 2 to RAIDD: reduces Aβ1-42-induced binding of Caspase 2 to RAIDD
[3]
  Bim induction elicited by Aβ1-42 (protein level): preventing Bim induction; also recorded: prevents Bim induction
